Experimental data reported in publication PMC8319832, “Fine-Tuning of Alkaline Residues on the Hydrophilic Face Provides a Non-toxic Cationic α-Helical Antimicrobial Peptide Against Antibiotic-Resistant ESKAPE Pathogens” (Frontiers in Microbiology, 2021).

Key:
Assay in all cases: Drug sensitivity, Kirby-Bauer test
Set-up in all cases: key: 'S' represents susceptibility; 'I' represents intermediate efficacy; 'R' represents resistance
A. baumannii 906 = type: cell-based, Acinetobacter baumannii; conditions: clinical isolate, CRE, MDR
Description: (§1) The bacteria used in this study included the standard strains S. aureus ATCC29213 and ATCC25923, E. faecalis ATCC29212, E. coli ATCC25922 and ATCC35218, A. baumannii ATCC19606, K. pneumoniae ATCC700603 and P. aeruginosa ATCC27853, these strains were purchased from the China Center of Type Culture Collection (CCTCC). The antimicrobial activities of the peptides were also determined against clinically isolated strains S. aureus 4188, 9124, 1176, S. epidermidis 9092, 6943, 888, E. faecalis 901, E. faecium 898, E. coli 2678, 2687, K. pneumoniae 9126, P. aeruginosa 9014, 9042, and A. baumannii 906, 13012, 13079, 9068, these strains were acquired from Taihe Hospital, Hubei University of Medicine. The drug sensitivities of the clinical isolates to the antibiotics were determined by the Kirby-Bauer test ([Chinnambedu et al., 2020]).

A. baumannii 9068 = type: cell-based, Acinetobacter baumannii; conditions: clinical isolate, CRE, MDR
Description: as §1

A. baumannii 13012 = type: cell-based, Acinetobacter baumannii; conditions: clinical isolate, CRE, MDR
Description: as §1

A. baumannii 13079 = type: cell-based, Acinetobacter baumannii; conditions: clinical isolate, CRE, MDR
Description: as §1

P. aeruginosa 9042 = type: cell-based, Pseudomonas aeruginosa; conditions: clinical isolate
Description: as §1

P. aeruginosa 9014 = type: cell-based, Pseudomonas aeruginosa; conditions: clinical isolate, CRE, MDR
Description: as §1

K. pneumoniae 9126 = type: cell-based, Klebsiella pneumoniae; conditions: clinical isolate, CRE
Description: as §1

E. coli 2687 = type: cell-based, Escherichia coli; conditions: clinical isolate, ESBL
Description: as §1

E. coli 2678 = type: cell-based, Escherichia coli; conditions: clinical isolate, ESBL
Description: as §1

S. epidermidis 6943 = type: cell-based; conditions: clinical isolate, MRSE
Description: as §1

S. epidermidis 888 = type: cell-based; conditions: clinical isolate
Description: as §1

S. epidermidis 9092 = type: cell-based; conditions: clinical isolate, MRSE
Description: as §1

S. aureus 4188 = type: cell-based, Staphylococcus aureus; conditions: clinical isolate
Description: as §1

S. aureus 9124 = type: cell-based, Staphylococcus aureus; conditions: clinical isolate, MRSA
Description: as §1

S. aureus 1176 = type: cell-based, Staphylococcus aureus; conditions: clinical isolate
Description: as §1

E. faecium 898 = type: cell-based, Enterococcus faecium; conditions: clinical isolate
Description: as §1

Compound | Drug sensitivity of the isolate to the antibiotic (A. baumannii 906) | Drug sensitivity of the isolate to the antibiotic (A. baumannii 9068) | Drug sensitivity of the isolate to the antibiotic (A. baumannii 13012) | Drug sensitivity of the isolate to the antibiotic (A. baumannii 13079) | Drug sensitivity of the isolate to the antibiotic (P. aeruginosa 9042) | Drug sensitivity of the isolate to the antibiotic (P. aeruginosa 9014) | Drug sensitivity of the isolate to the antibiotic (K. pneumoniae 9126) | Drug sensitivity of the isolate to the antibiotic (E. coli 2687) | Drug sensitivity of the isolate to the antibiotic (E. coli 2678) | Drug sensitivity of the isolate to the antibiotic (S. epidermidis 6943) | Drug sensitivity of the isolate to the antibiotic (S. epidermidis 888) | Drug sensitivity of the isolate to the antibiotic (S. epidermidis 9092) | Drug sensitivity of the isolate to the antibiotic (S. aureus 4188) | Drug sensitivity of the isolate to the antibiotic (S. aureus 9124) | Drug sensitivity of the isolate to the antibiotic (S. aureus 1176) | Drug sensitivity of the isolate to the antibiotic (E. faecium 898)
CC(C)(O/N=C(\C(=O)N[C@@H]1C(=O)N2C(C(=O)[O-])=C(C[n+]3ccccc3)CS[C@H]12)c1csc(N)n1)C(=O)O [Ceftazidime] | R | R | R | R | S | R | R | R | S | – | – | – | – | – | – | –
CO[C@@]1(NC(=O)Cc2cccs2)C(=O)N2C(C(=O)O)=C(COC(N)=O)CS[C@@H]21 [Cefoxitin] | – | – | – | – | – | – | – | – | – | R | I | R | R | R | R | –
C[C@@H](O)[C@H]1C(=O)N2C(C(=O)O)=C(S[C@@H]3CN[C@H](C(=O)N(C)C)C3)[C@H](C)[C@H]12 [Meropenem] | R | R | R | R | R | I | S | S | S | – | – | – | – | – | – | –
CN(C)[C@@H]1C(O)=C(C(N)=O)C(=O)[C@@]2(O)C(O)=C3C(=O)c4c(O)cccc4[C@@](C)(O)[C@H]3C[C@@H]12 [Tetracycline] | – | – | – | – | – | – | – | – | – | S | R | R | S | R | S | R
Piperacillin/tazobactam | R | R | R | R | S | R | S | S | S | – | – | – | – | – | – | –
CC1(C)S[C@@H]2[C@H](NC(=O)[C@H](N)c3ccccc3)C(=O)N2[C@H]1C(=O)O [Ampicillin] | – | – | – | – | R | R | R | R | R | – | – | – | – | – | – | –
NCC[C@H](O)C(=O)N[C@@H]1C[C@H](N)[C@@H](O[C@H]2O[C@H](CN)[C@@H](O)[C@H](O)[C@H]2O)[C@H](O)[C@H]1O[C@H]1O[C@H](CO)[C@@H](O)[C@H](N)[C@H]1O [Amikacin] | R | R | R | R | S | S | S | S | S | – | – | – | – | – | – | –
C[C@H]1COc2c(N3CCN(C)CC3)c(F)cc3c(=O)c(C(=O)O)cn1c23 [Levofloxacin] | R | R | R | R | R | R | S | R | R | I | R | R | S | S | S | R
Cc1onc(-c2ccccc2)c1C(=O)N[C@@H]1C(=O)N2[C@@H]1SC(C)(C)[C@@H]2C(=O)O [Oxazocilline] | – | – | – | – | – | – | – | – | – | R | S | R | S | R | S | –
C[C@@H](O)[C@H]1C(=O)N2C(C(=O)O)=C(SCCN=CN)C[C@H]12 [Imipenem] | R | R | R | R | R | R | R | S | S | – | – | – | – | – | – | –
Ticarcillin/clavulanic acid | R | R | R | R | R | R | S | – | S | – | – | – | – | – | – | –
